In patent US8067441B2, “Use of collismycin and derivatives thereof as oxidative stress inhibitors” (Neuropharma, S.A., priority 2005, dated 2011):

Experiments:
Assay type in all cases: cell-based
[1] = system: SH-SY5Y human neuroblastoma cells; experiment: Protection against hydrogen peroxide-induced cell death (LDH); conditions: 1 h preincubation, H2O2 100 μM, 24 h
Protocol: The aim of this assay is to determine the neuroprotective effect of the compounds of formula (I), when human neuroblastoma cells are exposed to oxidative stress induced by hydrogen peroxide, which is highly deleterious to the cell and its accumulation causes oxidation of cellular targets such as DNA, proteins, and lipids leading to mutagenesis and cell death.
SH-SY5Y human neuroblastoma cells are seeded into 96-well culture plate at a density of 10^4 cells/well. Cells are exposed to the different concentrations of the compound one hour before the treatment with H2O2 100 μM during 24 h. 5 mM NAC, a known anti-oxidant agent was used as a positive control, and preincubated 1 hour before the treatment with H2O2. After 24 h, the medium is removed and cells attached to the bottom of the well are lysed by adding 50 μl of Triton X-100 1% in Krebs-Hepes during 5 minutes at room temperature.
Cell survival was determined in parallel in the same assay.

[2] = system: SH-SY5Y human neuroblastoma cells; experiment: Protection against 6-OHDA-induced cell death, condition A (2 h preincubation, 10% serum); conditions: 6-OHDA 75 μM, 16 h, medium with 10% foetal bovine serum
Excerpt: (§1) The aim of this experiment is to determine the protective effect of the compounds of formula (I) against the toxicity caused by 6-hydroxydopamine (6-OHDA). This toxin induces a cell death similar to which occurs in Parkinson's disease, destroying dopaminergic neurons (“MPTP and 6-hydroxydopamine-induced neurodegeneration as models for Parkinson's disease: neuroprotective strategies”; Grunblatt E, et al.; J Neurol. 2000 April; 247 Suppl 2:1195-102).
(§2) Cells are exposed to the treatment with 6-OHDA and, finally, cell death is measured by LDH quantification. As positive control we used NAC. The assay is performed in two different experimental conditions:
A) NAC and the compound of formula (I) are preincubated during 2 hours before the treatment with 6-OHDA 75 μM during 16 hours. The assay is performed in medium containing 10% Foetal bovine serum.

[3] = system: SH-SY5Y human neuroblastoma cells; experiment: Protection against 6-OHDA-induced cell death, condition B (1 h preincubation, no serum); conditions: 6-OHDA 50 μM, 24 h, medium without fetal bovine serum
Excerpt: as §1, §2
B) NAC and the compound of formula (I) are preincubated during 1 hour before the treatment with 6-OHDA 50 μM during 24 hours. The assay is performed in medium without any fetal bovine serum.

Row | SMILES | lowest concentration at which neuroprotective effects were detected [1] [µM] | neuroprotective activity against 6-OHDA (concentration not given) [2] | minimum concentration showing neuroprotective effect [3] [µM] | minimum concentration at which neuroprotective [2] [µM]
1 | COc1cc(-c2ccccn2)nc(CO)c1SC [Collismycin C] | 10 | neuroprotective activity | 10 | 
2 | O/N=C/c1nc(-c2cnccn2)ccc1F [Compound 3, 3-Fluoro-6-pyrazin-2-yl-pyridine-2-carbaldehyde oxime] | 10 | neuroprotective activity |  | 
3 | O/N=C/c1nc(-c2ccccn2)ccc1F [Compound 2, 5-Fluoro-[2,2′]bipyridinyl-6-carbaldehyde oxime] | 0.5 | neuroprotective activity | 0.5 | 
4 | CSc1cc(C#N)nc(-c2ccccn2)c1 [Compound 1, 4-Methylsulfanyl-[2,2′]bipyridinyl-6-carbonitrile] | 5 |  |  | 
5 | COc1cc(/C=N/O)nc(-c2ccccn2)c1 [Caerulomycin A] | 0.05 |  | 1 | 1
